These molecules were tested against IDO1 (Homo sapiens, UniProt P14902) (assay: IDO1 Cellular Assay in HeLa Cells Stimulated with IFNγ). Details: about 48 hours, read-out: Hela IC50.
Format: cell-based
Protocol: Biological Assays IDO1 Cellular Assay in HeLa Cells Stimulated with IFNγ
HeLa cells were cultured in complete HeLa culture medium (90% EMEM, 10% heat-inactivated fetal bovine serum) and expanded to about 1×10^9 cells. The cells were then collected and frozen down at 1×10^7 cells/vial in 1 mL frozen medium (90% complete HeLa culture medium, 10% DMSO).
Compounds to be tested were serially diluted in ten 3-fold steps in DMSO starting from 10 mM DMSO stocks in Echo low volume plate(s).
Frozen HeLa cells were thawed and transferred into HeLa assay medium (99% complete HeLa culture medium, 1% Pen/Strep) with 20 mL medium/vial of cells. The cells were spun down at 250 g in a table top centrifuge for 5 min and suspended in same volume of HeLa assay medium. The cells were then counted and adjusted to a density of 2×10^5 cells/mL in HeLa assay medium. Sterile L-tryptophan were added to the cells with final concentration of 300 uM L-tryptophan. A small aliquot (2 mL/plate) of HeLa cells were set aside and were not treated with IFNγ, to serve as the Max-E control.
HeLa cells with and without IFNγ were dispensed to the respective wells of 384-well assay plates containing the compounds. The plates were incubated for about 48 hours at a 37° C., 5% CO2 incubator. Afterwards, 12 μL of 0.5 M methyl isonipecotate in dimethyl sulfoxide were added into each well and the plates were sealed and incubated at 37° C. without CO2 overnight. The plates were centrifuged for 1 min at 200×g. The resulting fluorescence was measured in a Spectramax plate reader (Molecular Devices) with a 400 nm excitation filter and a 510 nm emission filter.
Potencies were calculated by […] least squares fit to the four parameter logistic IC50 equation.

Sequence of IDO1 (P14902 whole entry): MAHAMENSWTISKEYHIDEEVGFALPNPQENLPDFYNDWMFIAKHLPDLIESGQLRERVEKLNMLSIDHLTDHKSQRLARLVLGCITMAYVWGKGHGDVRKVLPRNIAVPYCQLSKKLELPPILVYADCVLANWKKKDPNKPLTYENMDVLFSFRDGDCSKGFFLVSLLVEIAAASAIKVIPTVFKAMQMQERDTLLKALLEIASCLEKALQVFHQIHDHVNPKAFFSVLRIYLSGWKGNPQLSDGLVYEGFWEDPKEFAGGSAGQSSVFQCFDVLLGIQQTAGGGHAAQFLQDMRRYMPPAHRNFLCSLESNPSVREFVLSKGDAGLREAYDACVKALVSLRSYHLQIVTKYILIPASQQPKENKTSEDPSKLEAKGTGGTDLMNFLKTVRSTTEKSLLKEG

Compound | IC50 [nM]
CC(NC(=O)c1ccc(Cl)cc1)c1ccc2c(n1)OCCN2C(=O)c1ccccc1 (racemic) [Example 253, N-(1-(1-benzoyl-2,3-dihydro-1H-pyrido[2,3-b][1,4]oxazin-6-yl)ethyl)-4-chlorobenzamide] | 3.5
CC(C)CC(=O)N1CCCc2cc(C(C)NC(=O)c3ccc(Cl)cc3)ccc21 (single isomer, unassigned) [Example 26, 4-chloro-N-{1-[1-(3-methylbutanoyl)-1,2,3,4-tetrahydroquinolin-6-yl]ethyl}benzamide] | 4.3
CC(C)CC(=O)N1CCCc2cc([C@H](C)NC(=O)c3ccc(Cl)cc3)ccc21 (single isomer, unassigned) [Example 27] | 42.2
C[C@@H](NC(=O)c1ccc(F)cc1)c1ccc2c(c1)CCCN2C(=O)C1(F)CC1 (single isomer, unassigned) [Example 31] | 1230
C[C@H](NC(=O)c1ccc(F)cc1)c1ccc2c(c1)CCCN2C(=O)C1(F)CC1 (single isomer, unassigned) [Example 32] | 27.5
C[C@@H](NC(=O)c1ccc(F)cn1)c1ccc2c(c1)CCCN2C(=O)C1(F)CC1 (single isomer, unassigned) [Example 33] | 729
C[C@H](NC(=O)c1ccc(F)cn1)c1ccc2c(c1)CCCN2C(=O)C1(F)CC1 (single isomer, unassigned) [Example 34] | 800
C[C@H](C(=O)Nc1ccc(F)cn1)c1ccc2c(c1)CCCN2C(=O)c1cccc(Cl)c1 (single isomer, unassigned) [Example 54] | 18
C[C@H](C(=O)Nc1ccc(Cl)cc1)c1ccc2c(c1)CCCN2C(=O)c1cccc(Cl)c1 (single isomer, unassigned) [Example 56] | 3.1
C[C@@H](C(=O)Nc1ccc(F)cn1)c1ccc2c(c1)CCCN2C(=O)C1CC1 (single isomer, unassigned) [Example 60] | 124
C[C@H](C(=O)Nc1ccc(F)cn1)c1ccc2c(c1)CCCN2C(=O)C1CC1 (single isomer, unassigned) [Example 61] | 9.4
C[C@@H](C(=O)Nc1ccc(F)cn1)c1ccc2c(c1)CCCN2C(=O)C1(F)CC1 (single isomer, unassigned) [Example 62] | 524
C[C@H](C(=O)Nc1ccc(F)cn1)c1ccc2c(c1)CCCN2C(=O)C1(F)CC1 (single isomer, unassigned) [Example 63] | 16.5
CC(C)[C@@H](O)C(=O)N1CCCc2cc([C@H](C)C(=O)Nc3ccc(F)cc3)ccc21 (single isomer, unassigned) [Example 72] | 43.8
CC(C)[C@H](O)C(=O)N1CCCc2cc([C@H](C)C(=O)Nc3ccc(F)cc3)ccc21 (single isomer, unassigned) [Example 73] | 381
CO[C@@H](C)C(=O)N1CCCc2cc([C@H](C)C(=O)Nc3ccc(F)cc3)ccc21 (single isomer, unassigned) [Example 75] | 61.8
COC(C)C(=O)N1CCCc2cc([C@H](C)C(=O)Nc3ccc(F)cc3)ccc21 (single isomer, unassigned) [Example 76] | 25.9
C[C@H](C(=O)Nc1ccc(F)cc1)c1ccc2c(c1)CCCN2C(=O)[C@@H]1CCCCO1 (single isomer, unassigned) [Example 88] | 3.1
CC(NC(=O)c1ccc(F)cc1)c1ccc2c(c1)CCCN2C(CO)c1cccc(Cl)c1 (single isomer, unassigned) [Example 94] | 236
CC(NC(=O)c1ccc(F)cc1)c1ccc2c(c1)CCCN2C(CO)c1cccc(Cl)c1 (single isomer, unassigned) [Example 95] | 545

Compound | IC50 [nM]
CC(NC(=O)c1ccc(Cl)cc1)c1ccc2c(n1)CCCN2C(=O)C1CC1 (single isomer, unassigned) [Example 126, 4-chloro-N-{1-[5-(cyclopropanecarbonyl)-5,6,7,8-tetrahydro-1,5-naphthyridin-2-yl]ethyl}benzamide] | 617
C[C@@H](NC(=O)c1ccc(F)cc1)c1ccc2c(n1)CCCN2C(=O)[C@H]1CC1(F)F (single isomer, unassigned) [Example 134] | 24
C[C@@H](NC(=O)c1ccc(F)cc1)c1ccc2c(n1)CCCN2C(=O)[C@@H]1CC1(F)F (single isomer, unassigned) [Example 135] | 414
COC(C(=O)Nc1ccc(F)cn1)c1ccc2c(c1)CCCN2C(=O)C1CC1 (single isomer, unassigned) [Example 156, 2-(1-(cyclopropanecarbonyl)-1,2,3,4-tetrahydroquinolin-6-yl)-N-(5-fluoropyridin-2-yl)-2-methoxyacetamide] | 794
COC(C(=O)Nc1ccc(F)cn1)c1ccc2c(c1)CCCN2C(=O)C1CC1 (single isomer, unassigned) [Example 157, 2-(1-(cyclopropanecarbonyl)-1,2,3,4-tetrahydroquinolin-6-yl)-N-(5-fluoropyridin-2-yl)-2-methoxyacetamide] | 154
CC(C(=O)Nc1ccc(F)cc1)c1ccc2c(n1)CCCN2C(=O)C1CCCCO1 (single isomer, unassigned) [Example 159, N-(4-fluorophenyl)-2-[5-(oxane-2-carbonyl)-5,6,7,8-tetrahydro-1,5-naphthyridin-2-yl]propanamide] | 1.5
CC(C(=O)Nc1ccc(F)cc1)c1ccc2c(n1)CCCN2C(=O)C1CCCCO1 (single isomer, unassigned) [Example 160, N-(4-fluorophenyl)-2-[5-(oxane-2-carbonyl)-5,6,7,8-tetrahydro-1,5-naphthyridin-2-yl]propanamide] | 8.2
CC(C(=O)Nc1ccc(F)cc1)c1ccc2c(n1)CCCN2C(=O)C1CCCCO1 (single isomer, unassigned) [Example 161, N-(4-fluorophenyl)-2-[5-(oxane-2-carbonyl)-5,6,7,8-tetrahydro-1,5-naphthyridin-2-yl]propanamide] | 5.6
CC(C(=O)Nc1ccc(F)cc1)c1ccc2c(n1)CCCN2C(=O)[C@@H]1CCCO1 (single isomer, unassigned) [Example 163] | 21.8
CC(C(=O)Nc1ccc(F)cc1)c1ccc2c(n1)CCCN2C(=O)[C@@H]1CCCO1 (single isomer, unassigned) [Example 164] | 1.1
O=C(C1CCCCO1)N1CCCc2nc(C3(C(=O)Nc4ccc(F)cc4)CCC3)ccc21 (single isomer, unassigned) [Example 178, N-(4-fluorophenyl)-1-[5-(oxane-2-carbonyl)-5,6,7,8-tetrahydro-1,5-naphthyridin-2-yl]cyclobutane-1-carboxamide] | 1.6
O=C(C1CCCCO1)N1CCCc2nc(C3(C(=O)Nc4ccc(F)cc4)CCC3)ccc21 (single isomer, unassigned) [Example 179, N-(4-fluorophenyl)-1-[5-(oxane-2-carbonyl)-5,6,7,8-tetrahydro-1,5-naphthyridin-2-yl]cyclobutane-1-carboxamide] | 1.8
CC(NC(=O)c1ccc(F)cc1)c1ccc2c(n1)C(F)(F)CCN2C(=O)C1CC1 (single isomer, unassigned) [Example 194, N-(1-(5-(cyclopropanecarbonyl)-8,8-difluoro-5,6,7,8-tetrahydro-1,5-naphthyridin-2-yl)ethyl)-4-fluorobenzamide] | 2650
CC(NC(=O)c1ccc(F)cc1)c1ccc2c(n1)C(F)(F)CCN2C(=O)C1CC1 (single isomer, unassigned) [Example 195, N-(1-(5-(cyclopropanecarbonyl)-8,8-difluoro-5,6,7,8-tetrahydro-1,5-naphthyridin-2-yl)ethyl)-4-fluorobenzamide] | 9540
CC(NC(=O)c1ccc(F)cc1)c1ccc2c(n1)C(O)CCN2C(=O)C1CC1 (single isomer, unassigned) [Example 197, N-(1-(5-(cyclopropanecarbonyl)-8-hydroxy-5,6,7,8-tetrahydro-1,5-naphthyridin-2-yl)ethyl)-4-fluorobenzamide] | 290
CC(NC(=O)c1ccc(F)cc1)c1ccc2c(n1)C(O)CCN2C(=O)C1CC1 (single isomer, unassigned) [Example 198, N-(1-(5-(cyclopropanecarbonyl)-8-hydroxy-5,6,7,8-tetrahydro-1,5-naphthyridin-2-yl)ethyl)-4-fluorobenzamide] | 393
CC(NC(=O)c1ccc(F)cc1)c1ccc2c(n1)C(F)CCN2C(=O)C1CC1 (single isomer, unassigned) [Example 201, N-(1-(5-(cyclopropanecarbonyl)-8-fluoro-5,6,7,8-tetrahydro-1,5-naphthyridin-2-yl)ethyl)-4-fluorobenzamide] | 186
CC(NC(=O)c1ccc(F)cc1)c1ccc2c(n1)C(F)CCN2C(=O)C1CC1 (single isomer, unassigned) [Example 202, N-(1-(5-(cyclopropanecarbonyl)-8-fluoro-5,6,7,8-tetrahydro-1,5-naphthyridin-2-yl)ethyl)-4-fluorobenzamide] | 396
CC(NC(=O)c1ccc(F)cc1)c1ccc2c(n1)C(F)CCN2C(=O)C1CC1 (single isomer, unassigned) [Example 203, N-(1-(5-(cyclopropanecarbonyl)-8-fluoro-5,6,7,8-tetrahydro-1,5-naphthyridin-2-yl)ethyl)-4-fluorobenzamide] | 7510

— patent US12275729B2 (Merck Sharp & Dohme LLC, priority 2017, dated 2025)
